# Columns and labels:
# Escherichia coli = assay: Molecular phenotypic antimicrobial susceptibility test (extraction or DNA purification prior to PCR); type: cell-based
# Method: (§1) Detection of Molecular Phenotypic Antimicrobial Susceptibility. Disclosed herein are the methods for the detection of phenotypic antimicrobial susceptibility via molecular methods. The present invention describes how a specimen 100 with a known microbial load is incubated and then exposed to a panel of antimicrobial agents to determine sensitivity (prevention of growth) or resistance (allowance of growth) to the specific antimicrobial agents tested utilizing molecular methods.
# (§2) Sample Collection. Specimens 100 are collected from patients using sterile collection processes that are employed in routine clinical care. Specimens are transported to the testing facility in boric acid preservative.
# Preparation of the Specimens for Testing. […] The process for pathogen isolation includes steps of harvesting the pathogen (e.g., via centrifugation), isolating pathogen DNA via a DNA isolation and/or purification kit, and performing PCR on the pathogen DNA via PCR components (e.g., primers, enzymes, buffers) as would be known to the skilled artisan. […] This aliquot is used for antimicrobial susceptibility testing if indicated based on the pathogen detection results. […] Specimens 100 with lower pathogen loads could also be utilized in the antibiotic susceptibility phase of testing with or without a longer incubation period.
# (§3) Preparation of Antimicrobial Susceptibility Testing Plates. Antimicrobial solutions are prepared at known concentrations. The specific antimicrobials and their concentrations are selected based on the pathogen of interest and the described antimicrobial resistance breakpoints for that specimen pathogen and antimicrobial combination. These antimicrobials have been selected based on those commonly utilized by healthcare providers in routine clinical care for the specific type of suspected infection. The number and types of antimicrobials utilized can be customized based on the infection source, pathogen detected, patient-specific factors such as allergies or other health conditions (e.g., chronic kidney disease or concurrent medication use), or healthcare provider preferences such as antimicrobial availability or cost.
# The antimicrobial solutions are prepared in liquid culture media (such as Muller Hinton Broth) to achieve the desired antimicrobial concentration and are then stored at −80° C. until use. For a given specimen, each antimicrobial is tested at a single or multiple antimicrobial concentration(s) which is its established breakpoints for sensitivity. The antimicrobial solutions are prepared and plated out for each specific pathogen. […] This allows for evaluation of pathogen load when no antimicrobial is present.
# Specimen Exposure to Antimicrobial Agents. The 1 mL aliquot of the specimen 100 previously mixed with culture media and incubated is obtained. Using optical density measurements as a guide, the specimen 100 is diluted to 0.5 McFarland.
# Antimicrobial exposure plates are typically placed into an incubator for 12-16 hours.
# Nucleic Acid Amplification of Antimicrobial Agent Exposed Pathogens. The antimicrobial exposure plate is removed after the period of incubation. The specimen then undergoes a purification or lysis step. For example, the specimen may undergo a purification step (e.g., magnetic bead-based or other separation protocol to isolate genetic material). In another example, the specimen may undergo a cell lysis step. For example, buffer (e.g., lysis buffer) may be added and incubated in the thermal cycler for preparation for direct PCR. Next, the specimen may undergo a polymerase chain reaction (PCR) testing protocol, whereby a semi-quantitative PCR method is utilized. This may be completed either with or without a specific extraction protocol step. The pathogens can be individually targeted and detected, or a universal genetic sequence can be utilized to detect the antimicrobial susceptibility of the specimen as a whole.
# E. coli = assay: Molecular phenotypic antimicrobial susceptibility test, specimen with two detected pathogens incubated together without isolation; type: cell-based, Escherichia coli; details: E. coli in specimen with two detected pathogens (E. coli and M. morganii) incubated together
# Method: as §1
# as §2, with “preservative. Specimens 100 are subsequently divided into a first sample 104 and a second sample 108.” for “preservative.”
# (§4) Preparation of the Specimens for Testing. The specimens 100 are put through a pathogen identification process using PCR technology (e.g., using the first sample 104). The process for pathogen isolation includes steps of harvesting the pathogen (e.g., via centrifugation), isolating pathogen DNA via a DNA isolation and/or purification kit, and performing PCR on the pathogen DNA via PCR components (e.g., primers, enzymes, buffers) as would be known to the skilled artisan. Simultaneously, an additional aliquot of the same specimen (e.g., the second sample 108) is placed with liquid culture media and incubated for 4-6 hours. This aliquot is used for antimicrobial susceptibility testing if indicated based on the pathogen detection results. After pathogen identification is completed and if more than 10,000 cells/mL of bacteria (e.g., eligible bacteria) are detected in the source specimen, the second sample 108 then enters the antimicrobial susceptibility phase of testing. Specimens 100 with lower pathogen loads could also be utilized in the antibiotic susceptibility phase of testing with or without a longer incubation period.
# as §3
# (§5) The antimicrobial solutions are prepared in liquid culture media (such as Muller Hinton Broth) to achieve the desired antimicrobial concentration and are then stored at −80° C. until use. For a given specimen, each antimicrobial is tested at a single or multiple antimicrobial concentration(s) which is its established breakpoints for sensitivity. The antimicrobial solutions are prepared and plated out for each specific pathogen. This allows ease of use on the day of testing after defrosting the plate 112. Table 1, which illustrates the results of molecular phenotypic antimicrobial susceptibility testing when more than one organism is present in the source specimen, provides an example of an antimicrobial plate 112 prepared for this purpose. Of note, control wells containing only culture media are present on all plates 112. This allows for evaluation of pathogen load when no antimicrobial is present.
# (§6) Specimen Exposure to Antimicrobial Agents. The 1 mL aliquot of the specimen 100 previously mixed with culture media and incubated is obtained. Using optical density measurements as a guide, the specimen 100 is diluted to 0.5 McFarland. […]
# M. morganii = assay: as above; type: cell-based, Morganella morganii; details: M. morganii in specimen with two detected pathogens (E. coli and M. morganii) incubated together
# Method: as §1
# as §2, with “preservative. Specimens 100 are subsequently divided into a first sample 104 and a second sample 108.” for “preservative.”
# as §4, §3, §5, §6
compound,measurement,setting,value
O=C(O)c1cn(C2CC2)c2cc(N3CCNCC3)c(F)cc2c1=O [Ciprofloxacin],Ct at Sensitive Breakpoint,"Escherichia coli; E. coli isolate 1, Ct at control (average) 21.238",20.351
same,Molecular Antimicrobial Susceptibility Result,"Escherichia coli; E. coli isolate 1, at sensitive breakpoint",Resistant
same,Ct at Sensitive Breakpoint,"Escherichia coli; E. coli isolate 2, Ct at control (average) 21.270",19.988
same,Molecular Antimicrobial Susceptibility Result,"Escherichia coli; E. coli isolate 2, at sensitive breakpoint",Resistant
same,Ct at Sensitive Breakpoint,"Escherichia coli; E. coli isolate 3, Ct at control (average) 22.0995",21.394
same,Molecular Antimicrobial Susceptibility Result,"Escherichia coli; E. coli isolate 3, at sensitive breakpoint",Resistant
same,Ct at Sensitive Breakpoint,"Escherichia coli; E. coli isolate 4, Ct at control (average) 17.5733",17.68
same,Molecular Antimicrobial Susceptibility Result,"Escherichia coli; E. coli isolate 4, at sensitive breakpoint",Resistant
same,Ct at Sensitive Breakpoint,"Escherichia coli; E. coli isolate 5, Ct at control (average) 21.0933",33.02
same,Molecular Antimicrobial Susceptibility Result,"Escherichia coli; E. coli isolate 5, at sensitive breakpoint",Sensitive (Antimicrobial wells with pathogen load detected below the control wells (typically >2 cycle thresholds later) may be reported as Sensitive)
same,Ct of Sensitive Breakpoint,E. coli; Ct of controls (average) 15.93,31.81
same,Molecular Antimicrobial Susceptibility Result,E. coli; at sensitive breakpoint,Sensitive (Antimicrobial wells with pathogen load detected below the control wells (typically >2 cycle thresholds later) may be reported as Sensitive)
same,Ct of Sensitive Breakpoint,M. morganii; Ct of controls (average) 19.99,34.71
same,Molecular Antimicrobial Susceptibility Result,M. morganii; at sensitive breakpoint,Sensitive (Antimicrobial wells with pathogen load detected below the control wells (typically >2 cycle thresholds later) may be reported as Sensitive)

# Source: patent US20250290117A1, “MOLECULAR PHENOTYPIC ANTIMICROBIAL SUSCEPTIBILITY TESTING” (priority 2024, published 2025)
